Assay results: paper PMC11642016 (International Journal of Molecular Sciences, 2024)
“And” between values parts separate entries of the source, which are not always exact repeats. Identical values can stand only once. Like-named read-outs stand apart in the source and are kept apart here.

Tests used:
[1] = test system: HEK293T WT cells; assay: CellTiter-Glo cell viability assay, HEK293T WT; settings: for HEK293T WT Cell viability (% of controll): dose–response, individual replicates
[2] = test system: Fadu cells; assay: CellTiter-Glo luminescent cell viability assay, Fadu; settings: for viability at 2.8 µM: read-out: Cell Viability (% of Control) 2.8 µM, Fadu; for viability at 2.8 µM / viability at 8.3 µM / viability at 25 µM: mean ± SD, n = 2; for viability at 8.3 µM: read-out: Cell Viability (% of Control) 8.3 µM, Fadu; for viability at 25 µM: read-out: Cell Viability (% of Control) 25 µM, Fadu
[3] = test system: PANC-1 cells; assay: CellTiter-Glo luminescent cell viability assay, PANC-1; settings: for viability at 2.8 µM: read-out: Cell Viability (% of Control) 2.8 µM, PANC-1; for viability at 2.8 µM / viability at 8.3 µM / viability at 25 µM: mean ± SD, n = 2; for viability at 8.3 µM: read-out: Cell Viability (% of Control) 8.3 µM, PANC-1; for viability at 25 µM: read-out: Cell Viability (% of Control) 25 µM, PANC-1
Procedure: Primary fibroblast cultures were prepared from human skin biopsies and maintained in DMEM supplemented with 10% FBS, 1% penicillin-streptomycin, and 1% MEM Non-Essential Amino Acids Solution (Thermo Fisher Scientific). […] All cell lines were cultured in a humidified atmosphere at 37 °C and 5% CO2, passaged twice a week, and the experiments were performed on cells between passage 5 and 15. The cell lines were routinely screened for the absence of mycoplasma infection (DAPI staining).
The effects of the synthesized compounds on cell viability were measured using the CellTiter-Glo® luminescent cell viability assay (Promega, Madison, WI, USA), according to the manufacturer’s instructions. Briefly, cells were seeded onto a flat-bottomed, white 96-well plate (BRANDplates, cat. no.: 781965)), with the following densities: PANC-1: 750 cells/well, Fadu: 2000 cells/well, primary fibroblasts: 2000 cells/well, HEK293T WT: 1000 cells/well, HEK293T CLPP^−/−: 2500 cells/well. After seeding, cells were incubated for a further 48 h before treatment. Cells were treated with the compounds for 72 h. Three concentrations (25.0 µM; 8.3 µM; 2.8 µM) were applied during the initial cell viability screening, while for the determination of dose–response curves, 1.5-fold serially diluted compound concentrations were applied (range: 26 µM–0.7 µM). After treatment, the luminescence signal was recorded using a microplate reader (BioTek Synergy 2 Multi-Mode Reader, BioTek, Winooski, VT, USA).
Data analysis was performed using GraphPad Prism 9.5.0 software (GraphPad Software, San Diego, CA, USA). […] The dose–response curves were generated by four-parameter nonlinear regression, and the IC50 values were determined as the means ± SEM of the best-fit values of 3 independent measurements. The R^2 values were consistently above 0.93, indicating a strong fit of the model to the experimental data (Supplementary S.89). […] Dunnett’s post hoc test was applied to adjust for multiple comparisons, minimizing the likelihood of false positive results. Assumptions for ANOVA, including normality (assessed via QQ plots) and homogeneity of variance (tested using the Brown–Forsythe test), were verified. The following significance levels were applied: * p < 0.05, ** p < 0.01, *** p < 0.001, **** p < 0.0001. […] The tumor selectivity of the compounds was quantitatively characterized by the selectivity index (SI). This parameter was calculated as the ratio of the average best-fit IC50 value for primary fibroblasts and the best-fit IC50 value for the corresponding tumor cells (PANC-1 or Fadu).

[4] = 0.7 μM, 72 h, dose–response, individual replicates
[5] = 1 μM, 72 h, dose–response, individual replicates
[6] = 1.5 μM, 72 h, dose–response, individual replicates
[7] = 2.3 μM, 72 h, dose–response, individual replicates
[8] = 3.4 μM, 72 h, dose–response, individual replicates
[9] = 5.1 μM, 72 h, dose–response, individual replicates
[10] = 7.7 μM, 72 h, dose–response, individual replicates
[11] = 17.3 μM, 72 h, dose–response, individual replicates
[12] = 26 μM, 72 h, dose–response, individual replicates
[13] = Homo sapiens, FaDu, 72 h, 72 h, first-set screening
[14] = Homo sapiens, FaDu, 72 h, 72 h, second-set screening
[15] = Homo sapiens, PANC-1, 72 h, 72 h, first-set screening
[16] = Homo sapiens, PANC-1, 72 h, 72 h, second-set screening

## Cc1ccccc1CN1C(=O)C2=C(CCN(Cc3ccccc3)C2)N2CCN=C12 [ONC201, reference compound]
[1]; 0.4 μM, 72 h
  HEK293T WT Cell viability (% of controll): 105 % of controll and 96 % of controll and 95 % of controll
[1]; 0.6 μM, 72 h
  HEK293T WT Cell viability (% of controll): 70 % of controll and 65 % of controll and 68 % of controll
[1]; 1.0 μM, 72 h
  HEK293T WT Cell viability (% of controll): 32 % of controll and 31 % of controll
[1]; 1.6 μM, 72 h
  HEK293T WT Cell viability (% of controll): 25 % of controll and 29 % of controll
[1]; 2.5 μM, 72 h
  HEK293T WT Cell viability (% of controll): 19 % of controll and 22 % of controll and 23 % of controll
[1]; 4.0 μM, 72 h
  HEK293T WT Cell viability (% of controll): 19 % of controll and 22 % of controll and 20 % of controll
[1]; 6.4 μM, 72 h
  HEK293T WT Cell viability (% of controll): 19 % of controll and 22 % of controll and 20 % of controll
[1]; 16.25 μM, 72 h
  HEK293T WT Cell viability (% of controll): 18 % of controll and 19 % of controll
[1]; 26 μM, 72 h
  HEK293T WT Cell viability (% of controll): 15 % of controll and 16 % of controll and 18 % of controll
[1]; Homo sapiens, HEK-293T, 72 h, read-out: IC50 (µM) HEK293T WT, 72 h treatment, ± SEM, best-fit values, n = 4
  IC50: 0.6 ± 0.03 µM
[1]; Homo sapiens, HEK-293T, read-out: HEK293T WT IC50 values, Mean, mean of independently fitted replicate IC50 values (Supplement S.6)
  IC50: 0.56 µM
[1]; Homo sapiens, HEK-293T, read-out: HEK293T WT IC50 values, individual replicates n1-n4, IC50 independently determined for each replicate measurement (Supplement S.6)
  IC50: 0.394 µM
[1]; read-out: HEK293T WT IC50 values, individual replicates n1-n4, IC50 independently determined for each replicate measurement (Supplement S.6)
  IC50: 0.626 µM and 0.558 µM and 0.643 µM
[2]; [4]
  Fadu Cell viability (% of controll): 93 % of controll
[2]; [5]
  Fadu Cell viability (% of controll): 86 % of controll and 77 % of controll
[2]; [6]
  Fadu Cell viability (% of controll): 59 % of controll and 51 % of controll
[2]; [7]
  Fadu Cell viability (% of controll): 55 % of controll and 30 % of controll
[2]; [8]
  Fadu Cell viability (% of controll): 26 % of controll
[2]; [9]
  Fadu Cell viability (% of controll): 26 % of controll
[2]; [10]
  Fadu Cell viability (% of controll): 28 % of controll and 27 % of controll
[2]; [11]
  Fadu Cell viability (% of controll): 23 % of controll and 24 % of controll
[2]; [12]
  Fadu Cell viability (% of controll): 22 % of controll and 24 % of controll
[2]; [13]
  viability at 2.8 µM: 31 ± 1%
  viability at 8.3 µM: 29 ± 1%
  viability at 25 µM: 27 ± 1%
[2]; [14]
  viability at 2.8 µM: 38 ± 5%
  viability at 8.3 µM: 31 ± 2%
  viability at 25 µM: 25 ± 3%
[2]; Homo sapiens, FaDu, 72 h, read-out: Fadu Cell viability (% of controll), 0.7 μM, 72 h, dose–response, individual replicates
  viability at 0.7 µM: 94%
[2]; Homo sapiens, FaDu, 72 h, read-out: Fadu Cell viability (% of controll), 1 μM, 72 h, dose–response, individual replicates
  viability at 1 µM: 85%
[2]; Homo sapiens, FaDu, 72 h, read-out: Fadu Cell viability (% of controll), 1.5 μM, 72 h, dose–response, individual replicates
  viability at 1.5 µM: 66%
[2]; Homo sapiens, FaDu, 72 h, read-out: Fadu Cell viability (% of controll), 3.4 μM, 72 h, dose–response, individual replicates
  viability at 3.4 µM: 40%
[2]; Homo sapiens, FaDu, 72 h, read-out: Fadu Cell viability (% of controll), 5.1 μM, 72 h, dose–response, individual replicates
  viability at 5.1 µM: 39%
[2]; Homo sapiens, FaDu, 72 h, read-out: Fadu Cell viability (% of controll), 7.7 μM, 72 h, dose–response, individual replicates
  viability at 7.7 µM: 38%
[2]; Homo sapiens, FaDu, 72 h, read-out: Fadu Cell viability (% of controll), 17.3 μM, 72 h, dose–response, individual replicates
  viability at 17.3 µM: 33%
[2]; Homo sapiens, FaDu, 72 h, read-out: Fadu Cell viability (% of controll), 26 μM, 72 h, dose–response, individual replicates
  viability at 26 µM: 31%
[2]; Homo sapiens, FaDu, 72 h, read-out: IC50 Value ± SEM Fadu, 72 h treatment, best-fit values, n = 3
  IC50: 1.3 ± 0.15 µM
[2]; Homo sapiens, FaDu, read-out: Fadu IC50 values, Mean, mean of independently fitted replicate IC50 values (Supplement S.6)
  IC50: 1.34 µM
[2]; Homo sapiens, FaDu, read-out: Fadu IC50 values, individual replicates n1-n3, IC50 independently determined for each replicate measurement (Supplement S.6)
  IC50: 1.35 µM
[2]; read-out: Fadu IC50 values, individual replicates n1-n3, IC50 independently determined for each replicate measurement (Supplement S.6)
  IC50: 1.41 µM and 1.26 µM
[3]; [4]
  PANC-1 Cell viability (% of controll): 92 % of controll and 97 % of controll
[3]; [5]
  PANC-1 Cell viability (% of controll): 102 % of controll and 101 % of controll
[3]; [6]
  PANC-1 Cell viability (% of controll): 86 % of controll and 101 % of controll
[3]; [7]
  PANC-1 Cell viability (% of controll): 78 % of controll and 84 % of controll
[3]; [8]
  PANC-1 Cell viability (% of controll): 57 % of controll and 60 % of controll
[3]; [9]
  PANC-1 Cell viability (% of controll): 51 % of controll and 54 % of controll
[3]; [10]
  PANC-1 Cell viability (% of controll): 43 % of controll and 48 % of controll
[3]; [11]
  PANC-1 Cell viability (% of controll): 37 % of controll and 35 % of controll
[3]; [12]
  PANC-1 Cell viability (% of controll): 32 % of controll and 29 % of controll
[3]; [15]
  viability at 2.8 µM: 69 ± 1%
  viability at 8.3 µM: 58 ± 1%
  viability at 25 µM: 53 ± 2%
[3]; [16]
  viability at 2.8 µM: 59 ± 9%
  viability at 8.3 µM: 35 ± 2%
  viability at 25 µM: 22 ± 2%
[3]; Homo sapiens, PANC-1, 72 h, read-out: IC50 Value ± SEM PANC-1, 72 h treatment, best-fit values, n = 3
  IC50: 3.1 ± 0.26 µM
[3]; Homo sapiens, PANC-1, 72 h, read-out: PANC-1 Cell viability (% of controll), 0.7 μM, 72 h, dose–response, individual replicates
  viability at 0.7 µM: 90%
[3]; Homo sapiens, PANC-1, 72 h, read-out: PANC-1 Cell viability (% of controll), 1 μM, 72 h, dose–response, individual replicates
  viability at 1 µM: 94%
[3]; Homo sapiens, PANC-1, 72 h, read-out: PANC-1 Cell viability (% of controll), 1.5 μM, 72 h, dose–response, individual replicates
  viability at 1.5 µM: 85%
[3]; Homo sapiens, PANC-1, 72 h, read-out: PANC-1 Cell viability (% of controll), 2.3 μM, 72 h, dose–response, individual replicates
  viability at 2.3 µM: 72%
[3]; Homo sapiens, PANC-1, 72 h, read-out: PANC-1 Cell viability (% of controll), 3.4 μM, 72 h, dose–response, individual replicates
  viability at 3.4 µM: 64%
[3]; Homo sapiens, PANC-1, 72 h, read-out: PANC-1 Cell viability (% of controll), 5.1 μM, 72 h, dose–response, individual replicates
  viability at 5.1 µM: 49%
[3]; Homo sapiens, PANC-1, 72 h, read-out: PANC-1 Cell viability (% of controll), 7.7 μM, 72 h, dose–response, individual replicates
  viability at 7.7 µM: 46%
[3]; Homo sapiens, PANC-1, 72 h, read-out: PANC-1 Cell viability (% of controll), 17.3 μM, 72 h, dose–response, individual replicates
  viability at 17.3 µM: 34%
[3]; Homo sapiens, PANC-1, 72 h, read-out: PANC-1 Cell viability (% of controll), 26 μM, 72 h, dose–response, individual replicates
  viability at 26 µM: 33%
[3]; Homo sapiens, PANC-1, read-out: PANC-1 IC50 values, Mean, mean of independently fitted replicate IC50 values (Supplement S.6)
  IC50: 3.05 µM
[3]; Homo sapiens, PANC-1, read-out: PANC-1 IC50 values, individual replicates n1-n3, IC50 independently determined for each replicate measurement (Supplement S.6)
  IC50: 3.22 µM
[3]; read-out: PANC-1 IC50 values, individual replicates n1-n3, IC50 independently determined for each replicate measurement (Supplement S.6)
  IC50: 3.14 µM and 2.78 µM
